Measured values from US10189843B2, “Fused pyrazole derivative having autotaxin inhibitory activity” (The University of Tokyo, priority 2014, dated 2019).
Blank lines part the entries; values can stand above or below the compound they belong to.

Target: T1, Human autotaxin enzyme (Homo sapiens, UniProt Q13822)
T1 construct: purchased R&D System
Assay: Evaluation of autotaxin inhibitor, Method C (18:0 Lyso PC substrate, choline assay, Resorufin fluorescence)
Assay type: biochemical
Conditions: Method C (Test Example 3), read-out: Inhibitory activity (enzyme inhibitory activity, IC50)
In short: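 Recombinant human autotaxin with compound and 200 μM 18:0 Lyso PC (stock) in Tris-HCl pH 7.5, NaCl, MgCl2, Triton X-100, 2 h RT. Released choline detected via choline oxidase/peroxidase/Amplex-type reagent, 20 min, resorufin fluorescence 531/598 nm; % inhibition vs no-compound and no-enzyme controls, concentration-response curve.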

IC50: 100 to 1000 nM
Structure (SMILES): CCCCC1CN(Cc2ccncc2)C(=O)c2cc(-c3ccc(Cl)cc3)nn21 (stereo not drawn) [Compound I-0257]

IC50: 100 to 1000 nM
Structure (SMILES): CCCCCC1CN(CC(=O)NCC(=O)N(C)C)C(=O)c2cc(-c3ccc(Cl)cc3)nn21 (stereo not drawn) [Compound I-0038]

IC50: 10 to 100 nM
Structure (SMILES): CCCCCC1CN(CC(=O)NCCC(=O)O)C(=O)c2cc(-c3ccc(Cl)cc3)nn21 (stereo not drawn) [Compound I-0044]

IC50: 100 to 1000 nM
Structure (SMILES): CCCCCC1CN(CC(=O)NCCCCCC(=O)O)C(=O)c2cc(-c3ccc(Cl)cc3)nn21 (stereo not drawn) [Compound I-0046]

IC50: 10 to 100 nM
Structure (SMILES): CCCCCC1CN(CC(=O)N2CCNC(=O)C2)C(=O)c2cc(-c3ccc(Cl)cc3)nn21 (stereo not drawn) [Compound I-0037]

IC50: 10 to 100 nM
Structure (SMILES): CCCCC1CN(CC(=O)NCCC#N)C(=O)c2cc(-c3ccc(Cl)cc3)nn21 (stereo not drawn) [Compound I-0230]

IC50: 100 to 1000 nM
Structure (SMILES): CCCCCC1CN(Cc2ccc(C)cc2)C(=O)c2cc(-c3ccc(Cl)cc3)nn21 (stereo not drawn) [Compound I-0130]

IC50: 10 to 100 nM
Structure (SMILES): CCCCCC1CN(CC(=O)NCC(=O)O)C(=O)c2cc(-c3ccc(Cl)cc3)nn21 (stereo not drawn) [Compound I-0059]

IC50: 100 to 1000 nM
Structure (SMILES): CCCCC1CN(Cc2ncco2)C(=O)c2cc(-c3ccc(Cl)cc3)nn21 (stereo not drawn) [Compound I-0260]

IC50: 100 to 1000 nM
Structure (SMILES): CCCCC1CN(CC(=O)NCCCC#N)C(=O)c2cc(-c3ccc(Cl)cc3)nn21 (stereo not drawn) [Compound I-0244]

IC50: ≥ 1000 nM
Structure (SMILES): CCCCCC1CN(CC(=O)Nc2ccccc2)C(=O)c2cc(-c3ccc(Cl)cc3)nn21 (stereo not drawn) [Compound I-0087]

IC50: 100 to 1000 nM
Structure (SMILES): CCCCC1CN(CC(=O)NCCOCCO)C(=O)c2cc(-c3ccc(Cl)cc3)nn21 (stereo not drawn) [Compound I-0212]

IC50: 100 to 1000 nM
Structure (SMILES): CCCCCC1CN(CC(=O)NC2CCC(C(=O)O)CC2)C(=O)c2cc(-c3ccc(Cl)cc3)nn21 (stereo not drawn) [Compound I-0060]

IC50: 100 to 1000 nM
Structure (SMILES): CCCCC1CN(CC(=O)NCc2cccc(O)c2)C(=O)c2cc(-c3ccc(Cl)cc3)nn21 (stereo not drawn) [Compound I-0226]

IC50: ≥ 1000 nM
Structure (SMILES): CCCCCC1CN(Cc2ccc(OC(C)=O)cc2)C(=O)c2cc(-c3ccc(Cl)cc3)nn21 (stereo not drawn) [Compound I-0140]

IC50: 10 to 100 nM
Structure (SMILES): CCCCC1CN(CC(=O)OC)C(=O)c2cc(-c3ccc(Cl)cc3)nn21 (stereo not drawn) [Compound I-0249]

IC50: 100 to 1000 nM
Structure (SMILES): CCCCCC1CN(CC(=O)NCCCC)C(=O)c2cc(-c3ccc(Cl)cc3)nn21 (stereo not drawn) [Compound I-0088]

IC50: ≥ 1000 nM
Structure (SMILES): CCCCC1CN(CC(=O)NCc2ccnc(O)c2)C(=O)c2cc(-c3ccc(Cl)cc3)nn21 (stereo not drawn) [Compound I-0236]

More lines, now with the values behind:

Structure (SMILES): CCCCC1CN(Cc2ccc(C#N)cc2)C(=O)c2cc(-c3ccc(Cl)cc3C#N)nn21 (stereo not drawn) [Compound I-0280]
IC50: 10 to 100 nM

Structure (SMILES): CCCCCCC1CCCN1C(=O)CN1CC(CCCCC)n2nc(-c3ccc(Cl)cc3)cc2C1=O (stereo not drawn) [Compound I-0031]
IC50: ≥ 1000 nM

Structure (SMILES): CCCCCC1CN(CC(=O)N2CCCCC2C(=O)N2CCCCC2)C(=O)c2cc(-c3ccc(Cl)cc3)nn21 (stereo not drawn) [Compound I-0041]
IC50: 10 to 100 nM

Structure (SMILES): CCCCC1CN(CC(=O)N2CCN(C(N)=O)CC2)C(=O)c2cc(-c3ccc(Cl)cc3)nn21 (stereo not drawn) [Compound I-0217]
IC50: 100 to 1000 nM

Structure (SMILES): C[C@H]1CN(Cc2ccc(C#N)cc2)C(=O)c2cc(-c3ccc(Cl)cc3C=O)nn21 [Compound I-0296]
IC50: 100 to 1000 nM

Structure (SMILES): CCCCCC1CN(CC(=O)N2CCCC[C@@H]2C)C(=O)c2cc(-c3ccc(Cl)cc3)nn21 (stereo partly drawn) [Compound I-0082]
IC50: 10 to 100 nM

Structure (SMILES): CC(=O)Nc1cc(C#N)ccc1-c1cc2n(n1)[C@@H](C)CN(CC1CCCO1)C2=O (stereo partly drawn) [Compound I-0362]
IC50: 10 to 100 nM

Structure (SMILES): CC(=O)Nc1cc(C(F)(F)F)ccc1-c1cc2n(n1)[C@@H](C)CN(Cc1ccc(C#N)cc1)C2=O [Compound I-0333]
IC50: 10 to 100 nM

Structure (SMILES): CCCCC1CN(CC(=O)N2CCC(C(=O)OC)CC2)C(=O)c2cc(-c3ccc(Cl)cc3)nn21 (stereo not drawn) [Compound I-0279]
IC50: 10 to 100 nM

Structure (SMILES): CCCCCC1CN(Cc2cccc(OCCCN(C)C)c2)C(=O)c2cc(-c3ccc(Cl)cc3)nn21 (stereo not drawn) [Compound I-0135]
IC50: 100 to 1000 nM

Structure (SMILES): CCCCCC1CN(CC(=O)N2CCCC2CCCC)C(=O)c2cc(-c3ccc(Cl)cc3)nn21 (stereo not drawn) [Compound I-0079]
IC50: 100 to 1000 nM

Structure (SMILES): O=C1NCC(COCC(F)(F)C(F)F)n2nc(-c3ccc(Cl)cc3)cc21 (stereo not drawn) [Compound I-0196]
IC50: 100 to 1000 nM

Structure (SMILES): C[C@H]1CN(CC(=O)NCC(=O)O)C(=O)c2cc(-c3ccc(Cl)cc3)nn21 [Compound I-0162]
IC50: ≥ 1000 nM

Structure (SMILES): CCCCCC1CN(CC(=O)N2CCCC(CO)C2)C(=O)c2cc(-c3ccc(Cl)cc3)nn21 (stereo not drawn) [Compound I-0089]
IC50: 10 to 100 nM

Structure (SMILES): CCCCC1CN(C2CCN(CC#N)C2=O)C(=O)c2cc(-c3ccc(Cl)cc3)nn21 (stereo not drawn) [Compound I-0292]
IC50: 10 to 100 nM

Structure (SMILES): C[C@H]1CN(CC(=O)N(C)CC(=O)O)C(=O)c2cc(-c3ccc(Cl)cc3)nn21 [Compound I-0155]
IC50: ≥ 1000 nM

Structure (SMILES): CCCCC[C@@H]1CN(CC(=O)N2CCC(C(=O)O)CC2)C(=O)c2cc(-c3ccc(Cl)cc3)nn21 [Compound I-0313]
IC50: < 10 nM

Structure (SMILES): CCCCC1CN(Cc2ccc(C#N)cc2)C(=O)c2cc(N3CCC(C#N)CC3)nn21 (stereo not drawn) [Compound I-0304]
IC50: ≥ 1000 nM

Structure (SMILES): CCCCCC1CN(CC(=O)N2CCCC(C(=O)O)C2)C(=O)c2cc(-c3ccc(Cl)cc3)nn21 (stereo not drawn) [Compound I-0050]
IC50: 10 to 100 nM

Structure (SMILES): C[C@H]1CN(Cc2ccc(C#N)cc2)C(=O)c2cc(-c3ccc(Cl)cc3CC#N)nn21 [Compound I-0300]
IC50: ≥ 1000 nM

Structure (SMILES): C[C@H]1CN(Cc2ccc(C#N)cc2)C(=O)c2cc(-c3ccc(Cl)cc3N)nn21 [Compound I-0320]
IC50: ≥ 1000 nM

Structure (SMILES): CCCCCC1CN(c2ccc(C(=O)N(C)C)cc2)C(=O)c2cc(-c3ccc(Cl)cc3)nn21 (stereo not drawn) [Compound I-0310]
IC50: ≥ 1000 nM

Structure (SMILES): CCOC(=O)CN1CC(C(C)C)n2nc(-c3ccc(Cl)cc3)cc2C1=O (stereo not drawn) [Compound I-0022]
IC50: ≥ 1000 nM

Structure (SMILES): CCCCCC1CN(Cc2ccccc2S(=O)(=O)N2CCOCC2)C(=O)c2cc(-c3ccc(Cl)cc3)nn21 (stereo not drawn) [Compound I-0139]
IC50: ≥ 1000 nM

Structure (SMILES): CCCCC1CN(CC(=O)N2CCCC(C(N)=O)C2)C(=O)c2cc(-c3ccc(Cl)cc3)nn21 (stereo not drawn) [Compound I-0210]
IC50: 10 to 100 nM

Structure (SMILES): CCCCC1CN(CC(=O)N2[C@H](C)COC[C@@H]2C)C(=O)c2cc(-c3ccc(Cl)cc3)nn21 (stereo partly drawn) [Compound I-0223]
IC50: 100 to 1000 nM

Structure (SMILES): CCCCC1CN(Cc2ccc(C#N)cc2)C(=O)c2cc(-c3ccc(Cl)cc3N)nn21 (stereo not drawn) [Compound I-0281]
IC50: 100 to 1000 nM

Structure (SMILES): CC(=O)NC1=C(c2cc3n(n2)[C@@H](C)CN(Cc2ccc(C#N)cc2)C3=O)CCC(C(F)(F)F)C1 (stereo partly drawn) [Compound I-0366]
IC50: 10 to 100 nM

Structure (SMILES): CCCCCC1CN(Cc2ccccc2OCCCN(C)C)C(=O)c2cc(-c3ccc(Cl)cc3)nn21 (stereo not drawn) [Compound I-0138]
IC50: 100 to 1000 nM

Structure (SMILES): CCOC(=O)CN1C(=O)c2cc(-c3ccc(Cl)cc3)nn2C2COCC21 (stereo not drawn) [Compound I-0027]
IC50: ≥ 1000 nM

Structure (SMILES): CCCCCC1CN(CC(=O)N2CCC[C@H](C(=O)O)C2)C(=O)c2cc(-c3ccc(Cl)cc3)nn21 (stereo partly drawn) [Compound I-0070]
IC50: 10 to 100 nM

Structure (SMILES): CCCCC1CNC(=O)c2cc(-c3ccc(Cl)cc3)nn21 (stereo not drawn) [Compound I-0197]
IC50: ≥ 1000 nM

Structure (SMILES): O=C(O)C1CCN(C(=O)CN2CC(COCC(F)(F)F)n3nc(-c4ccc(Cl)cc4)cc3C2=O)CC1 (stereo not drawn) [Compound I-0318]
IC50: < 10 nM

Structure (SMILES): CCCCC1CN(CC(=O)N2CCCC[C@@H]2C)C(=O)c2cc(-c3ccc(Cl)cc3)nn21 (stereo partly drawn) [Compound I-0247]
IC50: 10 to 100 nM

Structure (SMILES): C[C@H]1CN(Cc2ccc(CC(=O)O)cc2)C(=O)c2cc(-c3ccc(Cl)cc3)nn21 [Compound I-0170]
IC50: 10 to 100 nM

Structure (SMILES): CC(=O)Nc1cc(C#N)ccc1-c1cc2n(n1)[C@@H](C)CN(Cc1ccc(C#N)cc1)C2=O [Compound I-0335]
IC50: < 10 nM
